Results reported in PMC9653751, “Chemical Composition and Antioxidant, Antimicrobial, and Anti-Inflammatory Properties of Origanum compactum Benth Essential Oils from Two Regions: In Vitro and In Vivo Evidence and In Silico Molecular Investigations” (Molecules, 2022).

Molecular target: T1, Tyrosinase
T1 construct: gene PPO3
Test: tyrosinase inhibition assay, details only by reference
Type: biochemical
Details: substrate and pH not given
Source text: tyrosinase inhibition assay, details only by reference on Tyrosinase

Quercetin: 39.62 ± 0.05 µg/mL
Compound: O=c1c(O)c(-c2ccc(O)c(O)c2)oc2cc(O)cc(O)c12 [Quercetin]
